Measurements reported in patent publication US9662327B2 (AGIOS PHARMACEUTICALS, INC, priority 2011, dated 2017).

Assays:
U87R132H (U87MG) cells = assay: Cellular assay for IDH1m inhibitors: inhibition of 2-HG production in U87MG (U87R132H) cells (LC-MS); type: cell-based; conditions: Homo sapiens, U-87 MG, 48 hours
Experimental: Cells (e.g., HT1080 or U87MG) are grown in T125 flasks in DMEM containing 10% FBS, 1× penicillin/streptomycin and 500 ug/mL G418. They are harvested by trypsin and seeded into 96 well white bottom plates at a density of 5000 cell/well in 100 ul/well in DMEM with 10% FBS. No cells are plates in columns 1 and 12. Cells are incubated overnight at 37 C in 5% CO2. The next day compounds are made up at 2× concentration and 100 ul are added to each cell well. The final concentration of DMSO is 0.2% and the DMSO control wells are plated in row G. The plates are then placed in the incubator for 48 hours. At 48 hours, 100 ul of media is removed from each well and analyzed by LC-MS for 2-HG concentrations. The cell plate is placed back in the incubator for another 24 hours. At 72 hours post compound addition, 10 mL/plate of Promega Cell Titer Glo reagent is thawed and mixed. The cell plate is removed from the incubator and allowed to equilibrate to room temperature. Then 100 ul of reagent is added to each well of media. The cell plate is then placed on an orbital shaker for 10 minutes and then allowed to sit at room temperature for 20 minutes. The plate is then read for luminescence with an integration time of 500 ms.

IDH1 R132H = IDH1 R132H (Homo sapiens (Human), UniProt O75874, R132H); assay: Assays for IDH1 R132H Inhibitors (NADPH/aKG, resazurin detection); type: biochemical; conditions: IDH1 R132H enzyme, Table 3; read-out: R132H IC50
Chain of IDH1 R132H (O75874 whole entry R132H): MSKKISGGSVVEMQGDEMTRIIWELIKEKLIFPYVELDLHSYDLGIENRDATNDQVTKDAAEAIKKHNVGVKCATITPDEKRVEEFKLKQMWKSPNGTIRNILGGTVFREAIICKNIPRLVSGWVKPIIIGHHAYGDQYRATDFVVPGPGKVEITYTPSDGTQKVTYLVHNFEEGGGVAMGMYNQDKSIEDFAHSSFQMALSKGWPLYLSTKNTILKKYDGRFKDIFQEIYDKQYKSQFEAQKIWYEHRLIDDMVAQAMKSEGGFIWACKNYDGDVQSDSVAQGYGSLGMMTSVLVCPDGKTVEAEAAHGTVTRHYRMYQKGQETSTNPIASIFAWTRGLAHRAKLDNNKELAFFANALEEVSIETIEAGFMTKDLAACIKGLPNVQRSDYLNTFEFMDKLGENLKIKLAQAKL
Summary of the method: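 Substrate mix held 8 uM NADPH plus 2 mM aKG; buffer was 20 mM Tris pH 7.5 with 150 mM NaCl, 10 mM MgCl2, 0.03% BSA. After 50 min room-temperature reaction, NADPH remaining was detected with 30 μM resazurin mix over 5 min.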

HT1080 cells = assay: Cellular assay for IDH1m inhibitors: inhibition of 2-HG production in HT1080 cells (LC-MS); type: cell-based; conditions: Homo sapiens, HT-1080, 48 hours
Summary of the method: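 HT1080 or U87MG cells seeded at 5000 cells/well overnight, then compound added (final DMSO 0.2%) and incubated 48 hours at 37 C. 2-HG in the medium quantified by LC-MS; viability checked by CellTiter-Glo luminescence at 72 hours post compound.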

Row | Structure (SMILES) | IC50 (U87R132H (U87MG) cells) [nM] | IC50 (IDH1 R132H) [nM] | IC50 (HT1080 cells) [nM]
1 | COCCC(=O)N1CCN(c2nc(C3CC3)c3c(c2C#N)CC(C)(C)OC3)CC1CC(F)(F)F (stereo not drawn) [Compound 469, 8-cyclopropyl-6-(4-(3-methoxypropanoyl)-3-(2,2,2-trifluoroethyl)piperazin-1-yl)-3,3-dimethyl-3,4-dihydro-1H-pyrano[3,4-c]pyridine-5-carbonitrile] | 1000 to 10000 | < 500 | 1000 to 10000
2 | CC(C)[C@@H]1CN(c2nc(C3CC3)c3c(c2C#N)CC(C)(C)OC3)CCN1C(=O)CC1CCO1 (stereo partly drawn) [Compound 473, 8-cyclopropyl-6-((3R)-3-isopropyl-4-(2-(oxetan-2-yl)acetyl)piperazin-1-yl)-3,3-dimethyl-3,4-dihydro-1H-pyrano[3,4-c]pyridine-5-carbonitrile] | 500 to 1000 | < 500 | < 500
3 | [2H]C1([2H])CN(c2nc(C3CC3)c3c(c2C#N)CC(C)(C)OC3)C([2H])([2H])C([2H])(C([2H])(C([2H])([2H])[2H])C([2H])([2H])[2H])N1C(=O)CC(F)(F)F [Compound 476, (R)-8-cyclopropyl-3,3-dimethyl-6-(2,2,3,5,5-pentadeuterio-3-(1,1,1,3,3,3-hexadeuteriopropan-2-yl)-4-(3,3,3-trifluoropropanoyl)piperazin-1-yl)-3,4-dihydro-1H-pyrano[3,4-c]pyridine-5-carbonitrile] | 1000 to 10000 | < 500 | 1000 to 10000
4 | [2H]C([2H])([2H])C([2H])(C([2H])([2H])[2H])[C@@]1([2H])N(C(=O)CC(F)(F)F)C([2H])([2H])C([2H])([2H])N(c2nc(C3CC3)c3c(c2C#N)CC(C)(C)OC3)C1([2H])[2H] [Compound 477, (R)-8-cyclopropyl-3,3-dimethyl-6-(2,2,3,5,5-pentadeuterio-3-(1,1,1,3,3,3-hexadeuteriopropan-2-yl)-4-(3,3,3-trifluoropropanoyl)piperazin-1-yl)-3,4-dihydro-1H-pyrano[3,4-c]pyridine-5-carbonitrile] | 1000 to 10000 | < 500 | 1000 to 10000
5 | COCCC(=O)N1CCN(c2nc(C3CC3)c3c(c2C#N)CCN(S(C)(=O)=O)C3)C[C@H]1C1CC1 [Compound 479, (R)-1-cyclopropyl-3-(3-cyclopropyl-4-(3-methoxypropanoyl)piperazin-1-yl)-7-(methylsulfonyl)-5,6,7,8-tetrahydro-2,7-naphthyridine-4-carbonitrile] | < 500 | < 500 | 500 to 1000
6 | CS(=O)(=O)N1CCc2c(C#N)c(N3CCN(C(=O)C4CC4)[C@H](C4CC4)C3)nc(C3CC3)c2C1 [Compound 481, (R)-3-(4-(cyclopropanecarbonyl)-3-cyclopropylpiperazin-1-yl)-1-cyclopropyl-7-(methylsulfonyl)-5,6,7,8-tetrahydro-2,7-naphthyridine-4-carbonitrile] | 500 to 1000 | < 500 | 1000 to 10000
7 | C=CC(=O)N1CCc2c(C3CC3)nc(N3CCN(C(=O)CCOC)[C@H](C4CC4)C3)c(C#N)c2C1 [Compound 483, (R)-6-acryloyl-1-cyclopropyl-3-(3-cyclopropyl-4-(3-methoxypropanoyl)piperazin-1-yl)-5,6,7,8-tetrahydro-2,6-naphthyridine-4-carbonitrile] | < 500 | < 500 | < 500
8 | C=CC(=O)N1CCc2c(C#N)c(N3CCN(C(=O)CCOC)[C@H](C4CC4)C3)nc(C3CC3)c2C1 [Compound 485, (R)-7-acryloyl-1-cyclopropyl-3-(3-cyclopropyl-4-(3-methoxypropanoyl)piperazin-1-yl)-5,6,7,8-tetrahydro-2,7-naphthyridine-4-carbonitrile] | < 500 | < 500 | < 500
9 | C#CC(=O)N1CCc2c(C3CC3)nc(N3CCN(C(=O)CCOC)[C@H](C4CC4)C3)c(C#N)c2C1 [Compound 486, (R)-1-cyclopropyl-3-(3-cyclopropyl-4-(3-methoxypropanoyl)piperazin-1-yl)-6-propioloyl-5,6,7,8-tetrahydro-2,6-naphthyridine-4-carbonitrile] | < 500 | < 500 | < 500
10 | C=CS(=O)(=O)N1CCc2c(C#N)c(N3CCN(C(=O)C4CC4)[C@H](C4CC4)C3)nc(C3CC3)c2C1 [Compound 493, (R)-3-(4-(cyclopropanecarbonyl)-3-cyclopropylpiperazin-1-yl)-1-cyclopropyl-7-(vinylsulfonyl)-5,6,7,8-tetrahydro-2,7-naphthyridine-4-carbonitrile] | < 500 | < 500 | < 500
11 | COC(=O)N1CCc2c(C#N)c(N3CCN(C(=O)C4CC4)[C@H](C4CC4)C3)nc(C3CC3)c2C1 [Compound 494, (R)-methyl 5-cyano-6-(4-(cyclopropanecarbonyl)-3-cyclopropylpiperazin-1-yl)-8-cyclopropyl-3,4-dihydro-2,7-naphthyridine-2(1H)-carboxylate] | < 500 | 500 to 1000 | < 500
12 | C=CS(=O)(=O)N1CCc2c(C#N)c(-c3ccc(C(=O)OC)cc3F)nc(C3CC3)c2C1 [Compound 496] | < 500 | < 500 | < 500
13 | C=CC(=O)N1CCc2c(C#N)c(N3CCN(C(=O)CCO)[C@H](C4CC4)C3)nc(C3CC3)c2C1 [Compound 498, (R)-7-acryloyl-1-cyclopropyl-3-(3-cyclopropyl-4-(3-hydroxypropanoyl)piperazin-1-yl)-5,6,7,8-tetrahydro-2,7-naphthyridine-4-carbonitrile] | < 500 | < 500 | < 500
